Source: US10292998B1, “Compositions and methods for prevention and treatment of eye infections” (priority 2018, dated 2019)

How the values were obtained:
[1] = test system: bacterial and viral infections; test: Treatment and prevention of eye infections, summary of the experiments; type: in vivo, human
Excerpt: Experiments have determined that PVP-I can be mixed with N-acetylcysteine (NAC), preferably in combination with an aqueous solution such as saline or water for improved lubrication, to form a medical eye drop treatment, which has the unexpected result of greatly reducing the bacteria count while simultaneously maintaining the pain at a tolerable level, or in some cases reducing the pain to a non-perceptible level. The active treatment components are preferably mixed by stirring at room temperature (that is, roughly 15-25° C.) and added to an aqueous solution. The PVP-I concentration of the mixture can be as low as 1.25% by volume of the treatment composition without substantially reducing its effectiveness at preventing eye infections of bacterial, viral, and fungal varieties.
Experiments were performed with differing ratios of PVP-I, NAC, and aqueous solution in combination. The PVP-I percentage by volume was varied between 0.5% and 80%, and the NAC percentage by volume was varied between 0.5% and 10%. The combinations were then applied, with one or more drops of the composition, each between 7 and 30 microliters in total volume, applied by syringe to the eye of a patient over a period of between 30 and 180 seconds.
An average eye drop contains 35 microliters, but the space between the human eye and the eyelid can only contain, in an average adult human, approximately 7 microliters of liquid. A human instinctively blinks upon addition of an eye drop to the eye, thereby forcing out most of the eye drop. As a result, only a fraction of a first eye drop will remain in the eye to mix with a second eye drop. […] As a result, the composition described above is not achieved.

[2] = test system: bacteria on the eye surface; settings: 0.5%-0.7% PVP-I solution by volume dripped into the eye over 30 seconds, repeated every 90 seconds four times; cited from earlier work
viral conjunctivitis = settings: cited from earlier work
[3] = cited from earlier work
[4] = test system: bacteria on the surface of the eyeball; test: Bacterial count on the surface of the eyeball after eye drops of PVP-I/NAC combinations; type: in vivo, human; settings: NAC alone
Excerpt: The combinations were then applied, with one or more drops of the composition, each between 7 and 30 microliters in total volume, applied by syringe to the eye of a patient over a period of between 30 and 180 seconds. […] In comparison, experiments using NAC alone was ineffective in lowering bacterial count.

Molecule | discomfort ([1]; summary of experiments) | treating and preventing bacterial infections ([1]; summary of experiments) | treating viral infections ([1]; summary of experiments) | reduction of bacteria on the eye surface [2] | treating pre-existing infections, especially viral infections such as viral conjunctivitis (viral conjunctivitis; PVP-I without NAC) | effect on viral conjunctivitis infections (viral conjunctivitis; solution of 1.25% PVP-I by volume without NAC, previous study) | tolerability on the eye ([3]; 1.25% or 2.5% PVP-I concentrations) | pain during application ([3]; 10% PVP-I concentration by volume, surface of the eye) | pain on application to the human eye ([3]; PVP-I especially at concentrations greater than 2.5% by volume) | lowering bacterial count [4] | treating or preventing infections ([1]; NAC without PVP-I)
Povidone-iodine [PVP-I] | highly uncomfortable | effective | ineffective | 99.9% | largely ineffective | no significant effect | tolerable but still highly irritating | intolerable | extreme immediate pain and a continuing burning sensation |  | 
CC(=O)N[C@@H](CS)C(=O)O [NAC, N-acetylcysteine] |  |  |  |  |  |  |  |  |  | ineffective | ineffective
